Source: patent US5942494A, “Stimulation of gene expression and synthesis of heat shock protein 72/73 (HSP 70)” (The Trustees of Columbia University in the City of New York, priority 1996, dated 1999)
Square brackets hold non-standard residues; d marks the D form. Peptide text beside a SMILES is read from it. Nle = CCCC[C@H](N)C(=O)O

How the values were obtained:
Format in all cases: cell-based, human
HSF1 = test: Western blot of steady-state HSF1 protein levels in HepG2 whole cell extracts; settings: ALLN 40 μg/ml, 2 hours, with or without cycloheximide
Procedure: FIGS. 6A-6B: ALLN affects the trimerization of HSF. HepG2 cells were treated with serum-free MEM containing 1.5% BSA for 2 hours at 37° C. without any additions (lane1), at 37 ° C. but containing 40μg/ml of ALLN in the medium (lane2), at 37° C. in a medium containing both ALLN and 50 μg/ml of cycloheximide (lane3) , at 42° C. alone (lane4), or at 42° C. plus cycloheximide in the medium (lane5). Cell lysates were prepared as described under Experimental Details. The lysates were either directly run on the SDS-PAGE (A) to show the steady-state protein levels of HSF1 or subjected to cross-linking with ethylene glycol bis sucrinimidylsuccinate (EGS) before running the gel (B) to show the oligomeric forms of HSF1. The proteins were then transfered to a nitrocellulose membrane and immunoblotted with anti-human HSF1 antibody. Arrows on the right side indicates the monomeric, dimeric or trimeric forms of HSF1, respectively. This experiment was repeated three times with identical results.
For measurement of the steady-state HSF1 protein levels, whole cell extracts were prepared by lysing the cells directly with 2×SDS-sample buffer (Maniatis, et al., 1982). For chemical cross-linking experiments, whole-cell extracts were prepared as described (Mosser, et al., 1988). Briefly, the cold PBS-washed cell pellets were quickly and repeatedly frozen in liquid nitrogen. […]

HepG2 cells = test: Total incorporation of radiolabel (TCA cpm) as indicator of cell toxicity, HepG2; settings: ALLN 10 μg/ml, HepG2
Procedure: HepG2 cells were preincubated for 4 hours in serum-free MEM and then radiolabeled with ^3 H-Leucine (150 μCi/ml) in a serum-free, leucine-free medium. Preincubation and labeling media each contained either 1.5% bovine serum albumin (BSA) alone, or BSA plus ALLN (40 μg/ml except as otherwise indicated), or BSA plus other protease inhibitors at concentrations indicated in the figure legends. At the indicated times, cells were removed from the 37° C. incubator and placed on ice, washed with cold phosphate-buffer saline (PBS) twice and lysed with lysis buffer containing 1% Triton X-100 (TX100), 1% deoxycholic acid (DOC) and 0.1% SDS in PBS containing proteinase inhibitors: 2 mM phenylmethylsulfonyl fluoride (PMSF); 2 μg/ml ALLN; 2 μg/ml leupeptin; and 2 μg/ml aprotinin. After a 30 min. incubation with lysis buffer at 4° C., the lysates were centrifuged at 14,000 g in a microcentrifuge for 5 min., and the supernatants were adjusted to 1% SDS concentration and boiled for 5 min. to denature the proteins. 1% TX100 was then added to dilute the lysates to a final concentration of 0.1% SDS. Cell lysates containing equal amounts of trichloroacetic acid (TCA)-insoluble radioactivity were used for immunoprecipitations by incubating with individual monoclonal antibody (1 μg/ml) for 2.5 hours at 4° C. Protein-A Sepharose 4B was added afterwards and the lysates incubated for another 1.5 hours at 4° C. to collect the immunocomplexes. After washing four times with 1×NET buffer (containing 0.5% TX100, 0.1% SDS), the immunocomplexes were mixed with sample buffer and boiled for 5 min. Following centrifugation, the supernatants were aliquoted for scintillation counting and for 3-15% gradient polyacrymide gel electrophoresis (SDS-PAGE) . The gels were later subjected to fluorography. All values are presented as the mean ± S.D. from three individual experiments except as otherwise indicated.

Hsp60 = test: Immunoprecipitation of Hsp60 from radiolabeled HepG2 cells; settings: HepG2, ALLN 4 hours
Procedure: (§1) FIGS. 7A-7B: Effects of ALLN on the biosynthesis of other members of Hsp family and related proteins. HepG2 cells were pre-treated and radiolabeled with or without ALLN for 4 hours as described in FIG. 1. Cell lysates were used for SDS-PAGE (A), or for immunoprecipitation with anti-Hsp25, -Hsp27, -Hsp60, -Hsp70, -Hsp86, -Hsp90, -Hsp104, -Bip, or -albumin antibodies respectively (1 μg/ml) (B). Because the anti-Hsp25, -Hsp27, -Hsp60 and Hsp90 antibodies are from a rat source, rabbit anti-rat IgG antibody was added after the first incubation, and the incubation was extended for another 1 hour at 4° C. before collection with protein A-Sepharose.Immunoprecipitates were loaded for SDS-PAGE and aliquoted for scintillation counting and plotting. Each value was presented as mean ±S.D. from three individual culture dishes.
(§2) HepG2 cells were preincubated for 4 hours in serum-free MEM and then radiolabeled with ^3 H-Leucine (150 μCi/ml) in a serum-free, leucine-free medium. […] Cell lysates containing equal amounts of trichloroacetic acid (TCA)-insoluble radioactivity were used for immunoprecipitations by incubating with individual monoclonal antibody (1 μg/ml) for 2.5 hours at 4° C. […]

albumin = test: Immunoprecipitation of albumin from radiolabeled HepG2 cells; settings: HepG2, ALLN 4 hours
Procedure: as §1, §2

Compound: CCCC[C@@H](C=O)NC(=O)[C@H](CC(C)C)NC(=O)[C@H](CC(C)C)NC(C)=O [ALLN, N-acetyl-leucyl-leucyl-norleucinal] (Ac-Leu-Leu-[Nle]-aldehyde)
- Steady-state levels of HSF1 in whole cell extracts (HSF1): not significantly affected
- Cell total incorporation of radiolabel (TCA cpm, an indicator of cell toxicity) (HepG2 cells): did not change significantly
- Effect on Hsp60 (Hsp60): no effects
- Effect on albumin (albumin): no effects
